Measured values from patent US20240358984A1, “Ultrasound delivery” (ACT Therapeutics Ltd, priority 2021, published 2024).

System: subcutaneous prostate cancer model (PC3)
Experiment: Tumour specific uptake of Evans Blue after ACT
Assay type: in vivo, mice
Settings: Enhancement 0.5 MHz, MI 0 to 0.4, 30 min after treatment
Experimental: To investigate the effect of MI variance of the US Enhancement field, tumour specific uptake of Evans Blue (EB, fluorescent dye) has been investigated in a subcutaneous prostate cancer model (PC3) in mice. Five groups with Enhancement insonation MIs of 0, 0.1, 0.2, 0.3 and 0.4 were investigated (N=3 animals per group). […] 30 min after treatment, the tumors were excised and the amount of EB was measured by spectrophotometry at 620 nm.

## Cc1cc(-c2ccc(/N=N/c3ccc4c(S(=O)(=O)O)cc(S(=O)(=O)O)c(N)c4c3O)c(C)c2)ccc1/N=N/c1ccc2c(S(=O)(=O)O)cc(S(=O)(=O)O)c(N)c2c1O [Evans Blue]
  tumour tissue uptake as function of Enhancement MI: increases from no US (MI=0) to MI=0.1 and further with MI=0.2, but then drops again with MI=0.3 and further with M=0.4
